Results: patent publication US5126336A, “Antibiotic C-3 catechol-substituted cephalosporin compounds, compositions and method of use thereof” (Bristol-Myers Squibb Company, priority 1990, dated 1992)
≈ marks a conversion by molar mass, not a printed value. Like-named read-outs stand apart in the source and are kept apart here.

What was measured:
Experiment in all cases: MIC, agar dilution
Format in all cases: cell-based
[1] = system: S. aureus 209P; settings: Staphylococcus aureus
Procedure: (§1) Minimum inhibitory concentrations (MICs) of the present series of cephalosporins were determined against 32 strains of test organisms by two-fold serial agar dilution method in Mueller-Hinton agar. Geometric means of MICs were calculated against six groups of the test organisms which are classified as follows and summarized in Table 1.
(§2) Medium; MuellerHinton agar (pH = 7.2)
(§3) Incubation temperature: 32° C., 18 hr
(§4) Inoculum size; 10^6 cells/ml

[2] = system: P. cepacia No. 651; settings: Burkholderia cepacia, Mueller-Hinton agar pH 7.2, 32° C., 18 hr, 10^6 cells/ml
Procedure: as §1, §2, §3, §4

[3] = system: K. pneumoniae PCI 602; settings: Klebsiella pneumoniae, PCI602, Mueller-Hinton agar pH 7.2, 32° C., 18 hr, 10^6 cells/ml
Procedure: as §1, §2, §3, §4

[4] = system: S. marcescens IPM-16; settings: Serratia marcescens, IPM16, Mueller-Hinton agar pH 7.2, 32° C., 18 hr, 10^6 cells/ml
Procedure: as §1, §2, §3, §4

[5] = system: S. aureus IPM-24 (MRSA); settings: Staphylococcus aureus, Mueller-Hinton agar pH 7.2, 32° C., 18 hr, 10^6 cells/ml
Procedure: as §1, §2, §3, §4

[6] = system: E. cloacae IPM-12; settings: Enterobacter cloacae, IPM12, Mueller-Hinton agar pH 7.2, 32° C., 18 hr, 10^6 cells/ml
Procedure: as §1, §2, §3, §4

[7] = system: S. epidermidis 11-1168; settings: Staphylococcus epidermidis, 111168, Mueller-Hinton agar pH 7.2, 32° C., 18 hr, 10^6 cells/ml
Procedure: as §1, §2, §3, §4

[8] = system: S. epidermidis 11-1230; settings: Staphylococcus epidermidis, 111230, Mueller-Hinton agar pH 7.2, 32° C., 18 hr, 10^6 cells/ml
Procedure: as §1, §2, §3, §4

[9] = system: S. marcescens IPM-15; settings: Serratia marcescens, IPM15, Mueller-Hinton agar pH 7.2, 32° C., 18 hr, 10^6 cells/ml
Procedure: as §1, §2, §3, §4

[10] = system: M. morgani 1510; settings: Mueller-Hinton agar pH 7.2, 32° C., 18 hr, 10^6 cells/ml
Procedure: as §1, §2, §3, §4

[11] = system: P. aeruginosa KKA 19; settings: Pseudomonas aeruginosa, KKA19, Mueller-Hinton agar pH 7.2, 32° C., 18 hr, 10^6 cells/ml
Procedure: as §1, §2, §3, §4

[12] = system: B. subtilis PCI 219; settings: Bacillus subtilis, PCI219, Mueller-Hinton agar pH 7.2, 32° C., 18 hr, 10^6 cells/ml
Procedure: as §1, §2, §3, §4

[13] = system: M. morgani 1510/9; settings: Mueller-Hinton agar pH 7.2, 32° C., 18 hr, 10^6 cells/ml
Procedure: as §1, §2, §3, §4

[14] = system: E. coli 255; settings: Escherichia coli, Mueller-Hinton agar pH 7.2, 32° C., 18 hr, 10^6 cells/ml
Procedure: as §1, §2, §3, §4

[15] = system: X. maltophilia GN 12873; settings: Stenotrophomonas maltophilia, GN12873, Mueller-Hinton agar pH 7.2, 32° C., 18 hr, 10^6 cells/ml
Procedure: as §1, §2, §3, §4

[16] = system: P. cepacia A21213; settings: Burkholderia cepacia, Mueller-Hinton agar pH 7.2, 32° C., 18 hr, 10^6 cells/ml
Procedure: as §1, §2, §3, §4

[17] = system: P. aeruginosa A20599; settings: Pseudomonas aeruginosa, Mueller-Hinton agar pH 7.2, 32° C., 18 hr, 10^6 cells/ml
Procedure: as §1, §2, §3, §4

[18] = system: S. aureus 4-1015 (MRSA); settings: Staphylococcus aureus, Mueller-Hinton agar pH 7.2, 32° C., 18 hr, 10^6 cells/ml
Procedure: as §1, §2, §3, §4

[19] = system: P. vulgaris IPM-13; settings: Proteus vulgaris, IPM13, Mueller-Hinton agar pH 7.2, 32° C., 18 hr, 10^6 cells/ml
Procedure: as §1, §2, §3, §4

[20] = system: P. aeruginosa IPM-8; settings: Pseudomonas aeruginosa, IPM8, Mueller-Hinton agar pH 7.2, 32° C., 18 hr, 10^6 cells/ml
Procedure: as §1, §2, §3, §4

[21] = system: X. maltophilia No. 661; settings: Stenotrophomonas maltophilia, Mueller-Hinton agar pH 7.2, 32° C., 18 hr, 10^6 cells/ml
Procedure: as §1, §2, §3, §4

[22] = system: E. faecalis A9808; settings: Enterococcus faecalis, Mueller-Hinton agar pH 7.2, 32° C., 18 hr, 10^6 cells/ml
Procedure: as §1, §2, §3, §4

[23] = system: P. rettgeri IPM-14; settings: Providencia rettgeri, IPM14, Mueller-Hinton agar pH 7.2, 32° C., 18 hr, 10^6 cells/ml
Procedure: as §1, §2, §3, §4

[24] = system: M. luteus 1001; settings: Micrococcus luteus, Mueller-Hinton agar pH 7.2, 32° C., 18 hr, 10^6 cells/ml
Procedure: as §1, §2, §3, §4

[25] = system: P. aeruginosa IPM-9; settings: Pseudomonas aeruginosa, IPM9, Mueller-Hinton agar pH 7.2, 32° C., 18 hr, 10^6 cells/ml
Procedure: as §1, §2, §3, §4

[26] = system: E. faecium A24817; settings: Enterococcus faecium, Mueller-Hinton agar pH 7.2, 32° C., 18 hr, 10^6 cells/ml
Procedure: as §1, §2, §3, §4

[27] = system: P. mirabilis IFO-2849; settings: Proteus mirabilis, IFO2849, Mueller-Hinton agar pH 7.2, 32° C., 18 hr, 10^6 cells/ml
Procedure: as §1, §2, §3, §4

[28] = system: C. freundii GN 7391; settings: Citrobacter freundii, GN7391, Mueller-Hinton agar pH 7.2, 32° C., 18 hr, 10^6 cells/ml
Procedure: as §1, §2, §3, §4

[29] = system: C. terrigena IFO 12685; settings: Mueller-Hinton agar pH 7.2, 32° C., 18 hr, 10^6 cells/ml
Procedure: as §1, §2, §3, §4

[30] = system: S. aureus Smith; settings: Staphylococcus aureus; S. aureus Smith; Mueller-Hinton agar pH 7.2; 32° C., 18 hr; 10^6 cells/ml; read-out: MIC
Summary of the method: (§5)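 Two-fold serial agar dilution in Mueller-Hinton agar (pH 7.2), inoculum 10^6 cells/ml, incubated 32° C for 18 hr. In vivo protection measured as PD50 in mice dosed intramuscularly just after bacterial challenge.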

[31] = system: P. aeruginosa A9843A; settings: Pseudomonas aeruginosa, A9843A, 18 h, pH 7.2
Summary of the method: as §5

[32] = system: E. coli Juhl A15119; settings: Escherichia coli, JUHLA15119; E. coli Juhl A15119; Mueller-Hinton agar pH 7.2; 32° C., 18 hr; 10^6 cells/ml; read-out: MIC
Summary of the method: as §5

Row | Structure (SMILES) | MIC [2] [µg/mL] | MIC [3] [µg/mL] | MIC [4] [µg/mL] | MIC [5] [µg/mL] | MIC [6] [µg/mL] | MIC [7] [µg/mL] | MIC [8] [µg/mL] | MIC [9] [µg/mL] | MIC [10] [µg/mL] | MIC [11] [µg/mL] | MIC [12] [µg/mL] | MIC [13] [µg/mL] | MIC [14] [µg/mL] | MIC [15] [µg/mL] | MIC [16] [µg/mL] | MIC [17] [µg/mL] | MIC [18] [µg/mL] | MIC [19] [µg/mL] | MIC [20] [µg/mL] | MIC [21] [µg/mL] | other results
1 | Nc1nc(/C(=N/O)C(=O)NC2C(=O)N3C(C(=O)O)=C(/C=C/Cn4cnc5cc(O)c(O)cc54)CS[C@H]23)cs1 (stereo partly shown) [Ir, 7-[(Z)-2-(2-Aminothiazol-4-yl)-2-hydroxyiminoacetamido]-3-[(E)-3-(5,6-dihydroxybenzimidazol-1-yl)-1-propen-1-yl]-3-cephem-4-carboxylic acid] | > 100 | 0.1 (≈ 0.179 µM) | > 100 | 100 (≈ 179 µM) | > 100 | 12.5 (≈ 22.4 µM) | 12.5 (≈ 22.4 µM) | 100 (≈ 179 µM) | 25 (≈ 44.8 µM) | 12.5 (≈ 22.4 µM) | 1.6 (≈ 2.87 µM) | 0.8 (≈ 1.43 µM) | 0.8 (≈ 1.43 µM) | > 100 | > 100 | 12.5 (≈ 22.4 µM) | 12.5 (≈ 22.4 µM) | > 100 | 3.1 (≈ 5.56 µM) | > 100 | MIC ([1]; 209P, 18 h, pH 7.2): 3.1 µg/mL (≈ 5.56 µM); MIC [22]: 12.5 µg/mL (≈ 22.4 µM); MIC [23]: 3.1 µg/mL (≈ 5.56 µM); MIC [24]: 0.8 µg/mL (≈ 1.43 µM); MIC [25]: > 100 µg/mL; MIC [26]: > 100 µg/mL; MIC [27]: 0.8 µg/mL (≈ 1.43 µM); MIC [28]: 50 µg/mL (≈ 89.7 µM); MIC [29]: 3.1 µg/mL (≈ 5.56 µM); MIC [30]: 1.6 µg/mL (≈ 2.87 µM); MIC [31]: 6.3 µg/mL (≈ 11.3 µM); MIC [32]: 0.4 µg/mL (≈ 0.717 µM)
2 | Nc1nc(/C(=N/O)C(=O)NC2C(=O)N3C(C(=O)O)=C(/C=C/Cn4ccc5cc(=O)c(O)cc-5c4)CS[C@H]23)cs1 (stereo partly shown) [Is, 7-[(Z)-2-(2-Aminothiazol-4-yl)-2-hydroxyiminoacetamido]-3-[(E)-3-(2,6-dihydro-7-hydroxy-6-oxo-isoquinolin-2-yl)-1-propen-1-yl]-3-cephem-4-carboxylic acid] | > 100 | 0.1 (≈ 0.176 µM) | > 100 | 12.5 (≈ 22 µM) | > 100 | 6.3 (≈ 11.1 µM) | 3.1 (≈ 5.45 µM) | > 100 | 12.5 (≈ 22 µM) | > 100 | 0.8 (≈ 1.41 µM) | 0.2 (≈ 0.352 µM) | 0.4 (≈ 0.703 µM) | > 100 | > 100 | > 100 | 3.1 (≈ 5.45 µM) | > 100 | > 100 | > 100 | MIC ([1]; S. aureus 209P, Mueller-Hinton agar pH 7.2, 32° C., 18 hr, 10^6 cells/ml, read-out: MIC): 0.8 µg/mL (≈ 1.41 µM); MIC [22]: 6.3 µg/mL (≈ 11.1 µM); MIC [23]: 1.6 µg/mL (≈ 2.81 µM); MIC [24]: 0.4 µg/mL (≈ 0.703 µM); MIC [25]: > 100 µg/mL; MIC [26]: 100 µg/mL (≈ 176 µM); MIC [27]: 0.4 µg/mL (≈ 0.703 µM); MIC [28]: > 100 µg/mL; MIC [29]: 1.6 µg/mL (≈ 2.81 µM); MIC [30]: 0.8 µg/mL (≈ 1.41 µM); MIC [31]: > 100 µg/mL; MIC [32]: 0.2 µg/mL (≈ 0.352 µM)
